# Results: patent US11439147B2, “3-pyridyl oxyaniline compound and use of same” (Sumitomo Chemical Company, Limited, priority 2016, dated 2022)
# Legend:
# Type in all cases: in vivo
# Amaranthus retroflexus = experiment: Post-emergence treatment test in a farmland (pot, foliar spray); conditions: application rate 4 kg/ha; two-leaf stage, sprayed; nine days after spraying; visual, 11 stages 0 (no effect) to 10 (complete kill)
# Method: Test Example 1: Post-emergence treatment test in a farmland
# Nursery soil was put in a plastic pot measuring 8 cm in diameter and 6.5 cm in height, and in the pot, seeds of Amaranthus retroflexus were sown, and then covered with soil of about 0.5 cm thickness, and the plants were grown in a greenhouse. When the Amaranthus retroflexus plants were grown to two-leaf stage, a diluted solution containing any one of the present compound, the compound A, or the compound B was uniformly sprayed on the whole Amaranthus retroflexus plants so that the application rates of the chemicals would be values indicated in Table 1.
# Here the diluted solution was prepared by dissolving the present compound, the compound A, or the compound B in dimethylformamide solution containing 2% of Tween 20 (polyoxyethylene sorbitan fatty acid ester) (manufactured by MP Biomedicals Inc.) and then diluting the solution with deionized water.
# The Amaranthus retroflexus plants that were sprayed with the diluted solution containing the present compound, the compound A, or the compound B were grown in a greenhouse. Nine clays after spraying, the efficacy for controlling Amaranthus retroflexus plants was observed, thereby examining a herbicidal effect. Here the herbicidal effect was visually observed and evaluated by classifying the effect into 11 stages from 0 (no effect) to 10 (complete kill).
# Lindernia procumbens = experiment: Herbicidal effect, pot test in greenhouse (paddy water treatment); conditions: twelve days after treatment, visual index 0 (no effect) to 100 (complete kill)
# Excerpt: (§1) Herbicidal effect against Echinochloa oryzicola and Lindernia procumbens (Pot test in greenhouse) Soil was put in a plastic pot (φ 5 cm×5.5 cm), and soil was puddled, and the plastic pot was allowed to stand for 2 days, Lindernia procumbens seeds were mixed with soil, and sown to the surface of puddled soil in the pot. On the same day, the sprouted seeds of Echinochloa oryzicola were sown into about 0.5 cm depth from the soil surface of the pot, and the submerged depth was adjusted to about 2 cm. Treatment solutions containing the present, compound, the compound A, or the compound B were prepared by dissolving the present compound, the compound A, or the compound B in acetone, followed by diluting the resulting solutions with distilled water. On the same day as the sowing of Echinochloa oryzicola and Lindernia procumbens, the treatment solution containing the present compound, the compound A, or the compound B was poured into paddy water in the pot so that the application rates of the chemicals would be values indicated in Table 2. Twelve days after the treatment, the herbicidal effect on weeds was visually observed by classifying the effect into 0 to 100 indices (0 (no effect) to 100 (complete kill)).
# Echinochloa oryzicola [1] = experiment: as above; conditions: twelve days after treatment, visual index 0 (no effect) to 100 (complete kill)
# Excerpt: as §1
# Echinochloa oryzicola [2] = experiment: Hydroponic test of Echinochloa oryzicola; conditions: ten days, visual index 0 (no effect) to 100 (complete kill)
# Method: Test Example 3: Hydroponic Test of Echinochloa oryzicola
# Two (2) mL of distilled water was poured into a plastic tube (2.5 cm in inside diameter×10 cm in height). To the distilled water was added a solution in which the present compound or the compound A was dissolved in dimethyl sulfoxide to prepare the treatment solutions so that, the treatment concentration thereof would be values indicated in table 3. Next, four grains of sprouted Echinochloa oryzicola seeds were put in each treatment solution. The tubes were covered with parafilm, and the seeds were grown under the condition that a cultivation at 25° C. under lightning for 16 hours and a successive cultivation at 25° C. under dark for 8 hours were repeated. Ten days after the addition of the Echinochloa oryzicola seeds, the herbicidal effect on Echinochloa oryzicola was visually observed by classifying the effect into 0 to 100 indices (0 (no effect) to 100 (complete kill)).
# Arabidopsis thaliana = experiment: Inhibitory activity on emergence of Arabidopsis thaliana; conditions: ten days after sowing, visual index 0: no effect to 100: no emergence
# Method: Test Example 4: Inhibitory Activity on Emergence of Arabiclopsis thaliana Each well of 24 well microtiter plates was matted with a filter paper, and to the filter paper was added 150 μL of distilled water. To the distilled water was added a solution in which the present compound, the compound A, or the compound B was dissolved in dimethyl sulfoxide so that the concentration of each of the chemicals would be values indicated in Table 4. Next, seeds of Arabidopsis thaliana were sown into each well and grown under the condition that a cultivation at 25° C. under lighting for 16 hours and a successive cultivation at 25° C. under dark for 8 hours were repeated. Ten days after sowing, the inhibitory activity on emergence of Arabidopsis thaliana was visually evaluated by classifying the activity into 0 to 100 indices (0: no effect to 100: no emergence).
# [3] = application rate 50 g/a into paddy water
# [4] = application rate 100 g/a into paddy water
# [5] = treatment concentration 125 ppm
# [6] = treatment concentration 250 ppm
# [7] = treatment concentration 500 ppm
# [8] = treatment concentration 1000 ppm
SMILES,Herbicidal Effect (Amaranthus retroflexus),Herbicidal Effect Lindernia procumbens (Lindernia procumbens; [3]),Herbicidal Effect Lindernia procumbens (Lindernia procumbens; [4]),Herbicidal Effect Echinochloa oryzicola (Echinochloa oryzicola [1]; [3]),Herbicidal Effect Echinochloa oryzicola (Echinochloa oryzicola [1]; [4]),Herbicidal Effect (Echinochloa oryzicola [2]; [5]),Herbicidal Effect (Echinochloa oryzicola [2]; [6]),Herbicidal Effect (Echinochloa oryzicola [2]; [7]),Inhibitory Activity on Emergence (Arabidopsis thaliana; [7]),Inhibitory Activity on Emergence (Arabidopsis thaliana; [8])
"CCOC(=O)COc1ncccc1Oc1cc(N)c(F)cc1Cl [Compound A, 4-chloro-2-fluoro-5-{2-(ethoxycarbonyl)methoxy-3-pyridyloxy}aniline]",1,0,0,0,10,0,0,0,0,0
CCOC(=O)COc1ncccc1Oc1cc(NC(=O)CC(=O)C(F)(F)F)c(F)cc1Cl [Compound B],3,0,0,0,0,–,–,–,0,0
CCOC(=O)COc1ncccc1Oc1cc(NC(=O)C=C(Nc2cc(Oc3cccnc3OCC(=O)OCC)c(Cl)cc2F)C(F)(F)F)c(F)cc1Cl [Present compound],8,50,60,100,100,100,100,100,100,100
